Legend:
B cell subtypes = details: 0.1-1.0 μg/ml for 48 hr, then 5 to 10 days SAC/rIL-2; data not shown
Protocol: B lymphocytes are incubated with drug (0.1-1.0 μg/ml) for 48 hr, followed by 5 to 10 days culture with SAC/rIL-2. The supernatant is then assayed at 5 and 10 days for IgM, IgG, and IgM-RF. Analyze the cells by flowcytometry at day 5 for CD20, CD20/CD5, CD5/sIgM, CD5/IgG, CD20/5/sIgM, and CD20/5 sIgG.

[1] = B-CLL patients; cited from earlier work
[2] = tested on: collagen-induced arthritis; details: 1 and 10 mg/kg/day injected days 0-10 or days 10-20
Protocol: The study involves two treatment schedules (47). In Schedule I, FLP is injected on a daily basis on days 0-10 at doses of 1 and 10 mg/kg/day. In Schedule II, FLP is injected at days 10-20 at 1 and 10 mg/kg/day. […] Clinical, histological, EIA, and flowcytometry are employed to follow the progress of the disease.

IgM production = test: Cumulative IgM production in SAC + rIL-2 cultures, EIA; format: cell-based, human; details: for accumulation of IgM: 5 and 10 day SAC rIL-2 cultures, preliminary studies
Protocol: In FIG. 5, peripheral blood mononuclear cells (PBMC) enriched for B lymphocytes (BC89; 60% CD19, 59% CD20, 8% CD3) were continuously cultured at 5×10^5/ml and stimulated with Staphylococcus aureus Cowan I (SAC) plus interleukin 2 (IL-2) (50 U/ml) in the presence of 1.0 μg/ml of FLP. Recombinant IL-6 was added to 50 U/ml. After the culture period, the supernatants were harvested and assayed for huIgM by EIA. Results shown are from 1 representative experiment of 5 different experiments conducted with 5 different sources of leukocyte preparations. […]
(§1) In FIG. 7, peripheral blood mononuclear cells (PBMC) enriched for B lymphocytes (BC92; 35% CD19, 33% CD20, 35% CD3) were continuously cultured for 5 days in either medium alone, Staphylococcus aureus Cowan I (SAC) plus interleukin 2 (IL-2) (50 U/ml), or SAC plus IL-2 in the presence of various concentrations of FLP or 2-chlorodeoxyadenosine (2CDA). After 5 days of culture, the supernatants were harvested and serial dilutions of supernatant assayed for huIgM and huIgG by EIA. The presence of IgM rheumatoid factor (IgM-RF) was determined by EIA using the Vectastain Biotin-Streptavidin amplification system. Results are reported as O.D. 405 nm units. […] The results shown are from 1 representative experiment of 4 separate experiments conducted with 4 different sources of packed leukocytes.
(§2) In FIG. 8, peripheral blood mononuclear cells (PBMC) enriched for B lymphocytes (BC92, 35% CD19, 33% CD20, 35% CD3) were continuously cultured for 10 days in either medium alone, Staphylococcus aureus Cowan I (SAC) plus interleukin 2 (IL-2) (50 U/ml), or SAC plus IL-2 in the presence of various concentrations of FLP or 2CDA. At the end of the culture period, the supernatants were harvested and serial dilutions assayed for huIgM, huIgG, and IgM-RF by EIA. The cells were phenotyped by flowcytometry. Results are reported as O.D. 405 nm units. […] The results shown are from 1 experiment representative of 3 separate experiments conducted with 3 different sources of packed leukocytes.
(§3) In FIG. 9, peripheral blood mononuclear cells (PBMC) (BC93; 22% CD19, 20% CD20, 78% CD3) were continuously cultured for 5 days in either medium alone, Staphylococcus aureus Cowan I (SAC) plus interleukin 2 (IL-2) (50 U/ml) or 20% T cell conditioned medium (Tcm) in the presence of various concentrations of FLP. At the end of the 5 day culture period, the supernatants were harvested and serial dilutions assayed for huIgM, huIgG, and IgM-RF by EIA. The results are reported as O.D. 405 nm units. […] The results shown are from one representative experiment.
Immulon-2 (Dynatek Laboratories, #011-010-3450, Chantilly, Va.) flat-bottom 96 well microtiter plates were coated with 100 μl/well of a 2 μg/ml solution of goat F(ab′)2 anti-HuIgM (μ chain, CALTAG #H15100, So. San Francisco, Calif.) or goat F(ab′)2 anti-HuIgG (Fc sp., CALTAG #H10100) in 0.1 M sodium carbonate buffer, pH 9.6 overnight at 4° C. Uncoated wells were incubated with the carbonate buffer alone. The plates were rinsed and then incubated with 100 μl/well of 0.1% BSA/PBS for 1 hr at RT.

[3] = tested on: CD20 positive B lymphocytes; details: 48 hr culture with and without PWM, dose range 0.1-5.0 μg/ml, FIG. 3
Protocol: In FIG. 3, freshly isolated PBMC enriched for CD20 positive B lymphocytes (50% CD19, 45% CD20, 10% CD20/CD5 and 30% CD3/CD5) were cultured over 48 hr with various concentrations of FLP with and without PWM (5 μg/ml). The cells were washed once in C-BSS, and resuspended in 0.5 ml C-BCC with 5 μl of PI. Percent viable CD20 positive cells were determined by analysis on a FACScan using the LYSIS II software. Results are expressed as percent of total gated viable cells.
For viability determination of unfixed samples, 5 μl of a 500 mg/ml stock—solution of propidium iodide (PI) was added to the samples (0.5 ml)—immediately before acquisition.
A dose range of drug between 0.1-5.0 μg/ml was performed on PBMC enriched for B lymphocytes cultured for 48 hr with and without the mitogen PWM (FIG. 3). At the end of the culture period, the cells were washed, stained, and analyzed by flowcytometry for viable CD20 positive B lymphocytes.

IgM-RF production = test: Cumulative IgM-RF production in SAC + rIL-2 cultures, EIA; format: cell-based, human; details: for effect on measurable IgM-RF: FIG. 7C; for accumulation of IgM-RF: 5 and 10 day SAC rIL-2 cultures, preliminary studies
Text: as §1, §2, §3
The procedure to determine amounts of IgM-RF in culture supernatants was a modification of the methodology described above. Briefly, plates were coated with 100 μl/well of a 2.4 μg/ml solution of human IgG Fc fragments (Jackson ImmunoResearch, Chrompure #009-000-008) in 0.1 M sodium carbonate, pH 9.6 overnight at 4° C. The wells were blocked with 0.1% BSA/PBS for 1 hr at RT, and then serial dilutions of culture supernatant were cultured at 100 μl/well for 18-48 hrs at RT. A Vectastain Human IgM ABC-AP kit (Vector Laboratories, #AK-5009, Burlingame, Calif.) was used to develop the plates. […] Results are reported as O.D. units at 405 nm.

B lymphocytes = details: SAC + rIL-2, drug present 0-72 hr, 72-144 hr or continuously; results not shown
Protocol: The B lymphocytes are cultured with SAC +rIL-2 under the following conditions:
1. 0 to 72 hr + drug (0.1-0.5 […]), wash, continue culture for additional 72 hr
2. 0 to 72 hr, wash, add drug for additional 72 hr culture
3. No drug for 6 days (wash at 3 days)
4. Drug in continuous culture for 6 days
At the end of the culture period, the supernatants are assayed for IgM, IgG, and IgM-RF.

[4] = one microgram per ml, 5 days, FIG. 7A

For Nc1nc(F)nc2c1ncn2[C@@H]1O[C@H](COP(=O)(O)O)[C@@H](O)[C@@H]1O [FLP, fludarabine-5′-monophosphate], the “sensitivity of B cell subtypes to drug” value (B cell subtypes) is listed as “CD5 positive B cells are found to be more sensitive”, the “peak concentration of F-ara-ATP in the lymphocytes relative to the serum peak” value [1] is listed as 10 fold and the “activity in arthritis model” value [2] is listed as “active following onset of disease”. The “effect on IgM accumulation” value (IgM production; 0.1 μg/ml, 10 days, FIG. 8A) was “minimal effect”, the “reduction of IgM accumulation” value (IgM production; 1 μg, 10 days, FIG. 8A) was 80% and the “detectable IgM in supernatants” value (IgM production; 1.0 μg/ml, 5 day cultures, FIG. 5) was “background levels”. For the same molecule, the “reduction of IgM accumulation” value (IgM production; 5 μg, 10 days, FIG. 8A) was 98%, the “effect on IgM accumulation” value (IgM production; 5 μg/ml, 5 days, FIG. 7A) was “block any measurable IgM accumulation” and the “effect on IgM accumulation” value (IgM production; 0.1 and 0.5 μg/ml, PBMC, 5 days, cultures containing rIL-2 or 20% T cell conditioned medium, FIG. 9A) was “reduce”. For the same molecule, the “accumulation of IgM” value (IgM production) was “dose-related decrease”, the “effect on IgM production” value (IgM production; one hundred nanograms per ml, 5 days, FIG. 7A) was “minimal effect” and the “effect on IgM production” value (IgM production; [4]) was “intermediate effect”. The “concentration at which effect on viable CD20 positive B lymphocytes becomes evident” value [3] was 0.5 µg/mL, the IgM-RF production (IgM-RF production; 0.1 μg/ml, 10 days, FIG. 8C) was 50 % of control and the “effect on measurable IgM-RF” value (IgM-RF production; 1 μg/ml, 5 days) was “reduce the measurable IgM-RF”. The “level of measurable IgM-RF” value (IgM-RF production; 5 μg, 10 days, FIG. 8C) was “below the medium control levels”, the “effect on measurable IgM-RF” value (IgM-RF production; 5 μg/ml, 5 days) was “reduce the measurable IgM-RF” and the “effect on IgM-RF accumulation” value (IgM-RF production; 0.1 and 0.5 μg/ml, PBMC, 5 days, cultures containing rIL-2 or 20% T cell conditioned medium, FIG. 9C) was “reduce”. For the same molecule, the “accumulation of IgM-RF” value (IgM-RF production) was “dose-related decrease” and the “part of the life cycle on which the drug has its primary effect” value (B lymphocytes) was “early stage B lymphocyte proliferation/differentiation”.
With Nc1nc(Cl)nc2c1ncn2[C@H]1C[C@H](O)[C@@H](CO)O1 [2CDA, 2-chlorodeoxyadenosine] the “accumulation of IgM” value (IgM production) was “dose-related decrease”, the “effect on IgM production” value (IgM production; [4]) was “block” and the “effect on IgM accumulation” value (IgM production; one microgram per ml, 10 days) was “block the accumulation”. For the same molecule, the “effect on measurable IgM-RF” value (IgM-RF production; 1 μg/ml, 5 days) was “less effect”, the “effect on IgM-RF accumulation compared with FLP” value (IgM-RF production; 1 μg/ml, 10 days) was “characteristics similar to FLP” and the “accumulation of IgM-RF” value (IgM-RF production) was “dose-related decrease”.

Reference: patent US6337333B1, “Method of treating autoimmune disease with fludarabine-5′-monophosphate” (priority 1992, dated 2002)
